The supplement of paper PMC11061612

Legend:
Assay in all cases: combination Emax (second highest fraction inhibited in the dose matrix, 72 h); higher = more inhibition; extreme values may be limits of the assay
[1] = tested on: EMC-BAC-2 (Non-Small Cell Lung Carcinoma)
Outline: (§1)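 After 24 hours at 37°C and 5% CO2 in 1536-well plates, cells in DMEM/F12 or RPMI plus 10% FBS received two-drug dose matrices for 72 hours. Viability came from CellTiter-Glo 2.0 luminescence and was scaled as inhibition, anchored at 0 by vehicle wells and at 1 by blank wells. Combination Emax is taken as the second-highest inhibition in the matrix, and Bliss excess as the observed combination effect less EA + EB − EA·EB, with EA and EB the single-agent effects.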

[2] = tested on: EW-3 (Ewing's Sarcoma)
Outline: as §1

[3] = tested on: GI-1 (Glioblastoma)
Outline: as §1

[4] = tested on: H-EMC-SS (Chondrosarcoma)
Outline: as §1

[5] = tested on: KP-2 (Pancreatic Carcinoma)
Outline: as §1

[6] = tested on: KU-19-19 (Bladder Carcinoma)
Outline: as §1

[7] = tested on: KYSE-150 (Esophageal Squamous Cell Carcinoma)
Outline: as §1

[8] = tested on: KYSE-50 (Esophageal Squamous Cell Carcinoma)
Outline: as §1

[9] = tested on: LOU-NH91 (Squamous Cell Lung Carcinoma)
Outline: as §1

[10] = tested on: MFE-319 (Endometrial Carcinoma)
Outline: as §1

[11] = tested on: NB7 (Neuroblastoma)
Outline: as §1

[12] = tested on: NCI-H1573 (Lung Adenocarcinoma)
Outline: as §1

[13] = tested on: NCI-H513 (Other Solid Carcinomas)
Outline: as §1

[14] = tested on: NCI-N87 (Gastric Carcinoma)
Outline: as §1

[15] = tested on: NH-12 (Neuroblastoma)
Outline: as §1

[16] = tested on: OCUB-M (Breast Carcinoma)
Outline: as §1

[17] = tested on: PF-382 (T-Lymphoblastic Leukemia)
Outline: as §1

[18] = tested on: RPMI-7951 (Melanoma)
Outline: as §1

[19] = tested on: SNU-C1 (Colorectal Carcinoma)
Outline: as §1

[20] = tested on: TGBC11TKB (Gastric Carcinoma)
Outline: as §1

Row | Compound | combination Emax [1] | combination Emax [2] | combination Emax [3] | combination Emax [4] | combination Emax [5] | combination Emax [6] | combination Emax [7] | combination Emax [8] | combination Emax [9] | combination Emax [10] | combination Emax [11] | combination Emax [12] | combination Emax [13] | combination Emax [14] | combination Emax [15] | combination Emax [16] | combination Emax [17] | combination Emax [18] | combination Emax [19] | combination Emax [20]
1 | COc1cccc(OCCCN)c1-c1cc(Nc2cnc(C#N)cn2)n[nH]1 [Prexasertib] + CCc1c2c(nc3ccc(O)cc13)-c1cc3c(c(=O)n1C2)COC(=O)[C@]3(O)CC [SN-38] (first compound max 1 µM, 7x7, partner max 0.3 µM) | 0.657 | 0.838 | 1 | 0.574 | 0.837 | 0.959 | 0.966 | 0.904 | 0.936 | 0.897 | 0.985 | 0.777 | 0.695 | 0.816 | 0.935 | 0.989 | 0.994 | 0.997 | 0.745 | 0.982
2 | COc1nnc2ccc(N3CCC(c4ccc(OCCN5CCN(C)C(=O)[C@H]5C)cc4)CC3)nn12 [AZD5153] + CCN(CCO)CCCOc1ccc2c(Nc3cc(CC(=O)Nc4cccc(F)c4)[nH]n3)ncnc2c1 [AZD2811] (first compound max 1 µM, 7x7, partner max 1 µM) | 0.738 | 0.626 | 0.873 | 0.248 | 0.401 | 0.665 | 0.688 | 0.651 | 0.743 | 0.535 | 0.441 | 0.412 | 0.375 | 0.547 | 0.739 | 0.69 | 0.98 | 0.613 | 0.531 | 0.311
3 | CC(=O)c1c(C)c2cnc(Nc3ccc(N4CCNCC4)cn3)nc2n(C2CCCC2)c1=O [Palbociclib] + CC1(C)CCC(CN2CCN(c3ccc(C(=O)NS(=O)(=O)c4ccc(NCC5CCOCC5)c([N+](=O)[O-])c4)c(Oc4cnc5[nH]ccc5c4)c3)CC2)=C(c2ccc(Cl)cc2)C1 [Venetoclax] (first compound max 10 µM, 7x7, partner max 1 µM) | 0.243 | 0.599 | 0.03 | 0.284 | 0.056 | 0.319 | 0.455 | 0.233 | 0.145 | 0.172 | 0.191 | 0.284 | 0.0783 | 0.417 | 0.592 | 0.0811 | 0.633 | 0.431 | 0.194 | 0.142
4 | COc1cc2ncnc(Nc3ccc(F)c(Cl)c3)c2cc1OCCCN1CCOCC1 [Gefitinib] + CC(C)n1c(=O)n(C)c2cnc3cc(F)c(-c4ccc(OCCCN5CCCCC5)nc4)cc3c21 [AZD1390] (first compound max 10 µM, 7x7, partner max 0.3 µM) | 0.32 | 0.254 | 0.18 | 0.201 | 0.0653 | 0.0903 | 0.353 | 0.334 | 0.404 | 0.0734 | 0.136 | 0.162 | 0.268 | 0.845 | 0.121 | 0.154 | 0.323 | 0.0802 | 0.0654 | 0.296
5 | CC1(C)CCC(CN2CCN(c3ccc(C(=O)NS(=O)(=O)c4ccc(NCC5CCOCC5)c([N+](=O)[O-])c4)c(Oc4cnc5[nH]ccc5c4)c3)CC2)=C(c2ccc(Cl)cc2)C1 [Venetoclax] + C=CCn1c(=O)c2cnc(Nc3ccc(N4CCN(C)CC4)cc3)nc2n1-c1cccc(C(C)(C)O)n1 [AZD1775] (first compound max 1 µM, partner max 1 µM) | 0.404 | 0.819 | 0.902 | 0.223 | 0.364 | 0.841 | 0.496 | 0.647 | 0.436 | 0.858 | 0.722 | 0.31 | 0.47 | 0.8 | 0.952 | 0.754 | 0.986 | 0.731 | 0.555 | 0.942
6 | COc1cc2c(cc1OCCCCCOc1cc3c(cc1OC)C(=O)N1C=C(C)C[C@H]1C=N3)N=C[C@@H]1CC(C)=CN1C2=O [SG3199] + O=C(c1cc(Cc2n[nH]c(=O)c3ccccc23)ccc1F)N1CCN(C(=O)C2CC2)CC1 [Olaparib] (first compound max 0.001 µM, 7x7, partner max 10 µM) | 0.169 | 0.634 | 0.175 | 0.0837 | 0.13 | 0.247 | 0.183 | 0.0539 | 0.175 | 0.12 | 0.166 | 0.0928 | 0.107 | 0.125 | 0.319 | 0.232 | 0.259 | 0.203 | 0.0546 | 0.3
